Source: patent publication US12221434B2, “Sulfonamide carboxamide compounds” (Inflazome Limited, priority 2017, dated 2025)

How the values were obtained:
NLRP3 [1] = target: T1, NLRP3 (Homo sapiens, UniProt Q96P20); test: THP-1 cells pyroptosis assay (LPS + nigericin, resazurin read-out); format: cell-based; set-up: Seed THP-1 cells (25,000 cells/well) containing 1.0 μg/ml LPS; host or cells: THP-1 cells, LPS-primed, nigericin-stimulated; details: 1 μg/ml LPS, 5 μM nigericin, NLRP3 inhibitory activity
T1 sequence (Q96P20 whole entry): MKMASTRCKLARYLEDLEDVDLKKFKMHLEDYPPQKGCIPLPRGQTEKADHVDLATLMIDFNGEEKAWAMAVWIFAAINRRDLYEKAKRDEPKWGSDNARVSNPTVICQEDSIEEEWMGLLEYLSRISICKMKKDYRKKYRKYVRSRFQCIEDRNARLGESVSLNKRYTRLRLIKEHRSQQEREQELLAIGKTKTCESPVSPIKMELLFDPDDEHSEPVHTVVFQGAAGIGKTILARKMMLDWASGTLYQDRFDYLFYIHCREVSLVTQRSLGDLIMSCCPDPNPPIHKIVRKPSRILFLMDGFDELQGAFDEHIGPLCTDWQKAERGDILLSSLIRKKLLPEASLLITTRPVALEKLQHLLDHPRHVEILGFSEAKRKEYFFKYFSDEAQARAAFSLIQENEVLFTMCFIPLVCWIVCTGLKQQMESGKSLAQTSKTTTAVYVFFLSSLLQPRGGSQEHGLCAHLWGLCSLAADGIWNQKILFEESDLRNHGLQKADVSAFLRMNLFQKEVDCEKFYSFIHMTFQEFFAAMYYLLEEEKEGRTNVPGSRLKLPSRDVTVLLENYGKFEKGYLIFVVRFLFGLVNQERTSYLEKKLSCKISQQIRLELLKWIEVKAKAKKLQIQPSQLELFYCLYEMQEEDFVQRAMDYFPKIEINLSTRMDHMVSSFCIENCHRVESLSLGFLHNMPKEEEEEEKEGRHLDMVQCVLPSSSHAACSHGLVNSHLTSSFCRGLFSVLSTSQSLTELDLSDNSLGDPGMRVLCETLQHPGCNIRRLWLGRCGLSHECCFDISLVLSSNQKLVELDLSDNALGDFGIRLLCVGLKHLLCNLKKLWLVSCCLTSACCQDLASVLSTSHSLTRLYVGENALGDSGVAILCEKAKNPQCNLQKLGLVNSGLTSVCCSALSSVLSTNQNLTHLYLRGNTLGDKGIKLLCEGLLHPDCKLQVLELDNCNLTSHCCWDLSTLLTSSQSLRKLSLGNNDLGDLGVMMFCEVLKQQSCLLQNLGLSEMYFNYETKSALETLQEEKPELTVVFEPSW
Description: THP-1 cells (ATCC #TIB-202) were grown in RPMI containing L-glutamine (Gibco #11835) supplemented with 1 mM sodium pyruvate (Sigma #S8636) and penicillin (100 units/ml)/streptomycin (0.1 mg/ml) (Sigma #P4333) in 10% Fetal Bovine Serum (FBS) (Sigma #F0804). The cells were routinely passaged and grown to confluency (˜10^6 cells/ml). On the day of the experiment, THP-1 cells were harvested and resuspended into RPMI medium (without FBS). The cells were then counted and viability (>90%) checked by Trypan blue (Sigma #T8154). Appropriate dilutions were made to give a concentration of 625,000 cells/ml. To this diluted cell solution was added LPS (Sigma #L4524) to give a 1 μg/ml Final Assay Concentration (FAC). 40 μl of the final preparation was aliquoted into each well of a 96-well plate. The plate thus prepared was used for compound screening.
The following method step-by-step assay was followed for compound screening. • 1. Seed THP-1 cells (25,000 cells/well) containing 1.0 μg/ml LPS in 40 μl of RPMI medium (without FBS) in 96-well, black walled, clear bottom cell culture plates coated with poly-D-lysine (VWR #734-0317) • 2. Add 5 μl compound (8 points half-log dilution, with 10 μM top dose) or vehicle (DMSO 0.1% FAC) to the appropriate wells • 3. Incubate for 3 hrs at 37° C. and 5% CO2 • 4. Add 5 μl nigericin (Sigma #N7143) (FAC 5 μM) to all wells • 5. Incubate for 1 hr at 37° C. and 5% CO2 • 6. At the end of the incubation period, spin plates at 300×g for 3 mins and remove supernatant • 7. Then add 50 μl of resazurin (Sigma #R7017) (FAC […] resazurin in RPMI medium without FBS) and incubate plates for a further 1-1.5 h at 37° C. and 5% CO2 • 8. Plates were read in an Envision reader at Ex 560 nm and Em 590 nm • 9. IC50 data is fitted to a non-linear regression equation (log inhibitor vs response-variable slope 4-parameters) 96-Well Plate Map

NLRP3 [2] = target: T1, NLRP3; test: Human whole blood IL1β release assay (LPS + nigericin, AlphaLisa IL-1β); format: cell-based; set-up: Plate out 80 μl of whole blood containing 1 μg/ml of LPS; from tissue; host or cells: human whole blood from healthy donors (Li-heparin), LPS-primed, nigericin-stimulated; details: 1 μg/ml LPS, 10 μM nigericin, IL-1β release, read-out: HWB IC50
Description: For systemic delivery, the ability to inhibit NLRP3 when the compounds are present within the bloodstream is of great importance. For this reason, the NLRP3 inhibitory activity of a number of compounds in human whole blood was investigated in accordance with the following protocol.
Human whole blood in Li-heparin tubes was obtained from healthy donors from a volunteer donor panel. • 1. Plate out 80 μl of whole blood containing 1 μg/ml of LPS in 96-well, clear bottom cell culture plate (Corning #3585) • 2. Add 10 μl compound (8 points half-log dilution with 10 μM top dose) or vehicle (DMSO 0.1% FAC) to the appropriate wells • 3. Incubate for 3 hrs at 37° C., 5% CO2 • 4. Add 10 μl nigericin (Sigma #N7143) (10 μM FAC) to all wells • 5. Incubate for 1 hr at 37° C., 5% CO2 • 6. At the end of the incubation period, spin plates at 300×g for 5 mins to pellet cells and remove 20 μl of supernatant and add to 96-well v-bottom plates for IL-1β analysis (note: these plates containing the supernatants can be stored at −80° C. to be analysed at a later date) • 7. IL-1β was measured according to the manufacturer protocol (Perkin Elmer-AlphaLisa IL-1 Kit AL220F-5000) • 8. IC50 data is fitted to a non-linear regression equation (log inhibitor vs response-variable slope 4-parameters)

Compound | IC50 (NLRP3 [1]) [nM] | IC50 (NLRP3 [2]) [nM]
O=C(Nc1c2c(cc3c1CCC3)CCC2)NS(=O)(=O)c1ccn(Cc2ncccn2)n1 [Example 1, N-((1,2,3,5,6,7-Hexahydro-s-indacen-4-yl)carbamoyl)-1-(pyrimidin-2-ylmethyl)-1H-pyrazole-3-sulfonamide] | 640 to 2560 | 
O=C(Nc1c2c(cc3c1CCC3)CCC2)NS(=O)(=O)c1ccn(Cc2ncco2)n1 [Example 2, N-((1,2,3,5,6,7-Hexahydro-s-indacen-4-yl)carbamoyl)-1-(oxazol-2-ylmethyl)-1H-pyrazole-3-sulfonamide] | 40 to 160 | 3200 to 10000
Cn1ccnc1Cn1ccc(S(=O)(=O)NC(=O)Nc2c3c(cc4c2CCC4)CCC3)n1 [Example 3, N-((1,2,3,5,6,7-Hexahydro-s-indacen-4-yl)carbamoyl)-1-((1-methyl-1H-imidazol-2-yl)methyl)-H-pyrazole-3-sulfonamide] |  | 400 to 800
O=C(Nc1c2c(cc3c1CCC3)CCC2)NS(=O)(=O)c1ccn(-c2ccccn2)n1 [Example 4, N-((1,2,3,5,6,7-Hexahydro-s-indacen-4-yl)carbamoyl)-1-(pyridin-2-yl)-1H-pyrazole-3-sulfonamide] | 640 to 2560 | 
O=C(Nc1c2c(cc3c1CCC3)CCC2)NS(=O)(=O)c1ccn(-c2cccnc2)n1 [Example 6, N-((1,2,3,5,6,7-Hexahydro-s-indacen-4-yl)carbamoyl)-1-(pyridin-3-yl)-1H-pyrazole-3-sulfonamide] | 640 to 2560 | 

Now from value to compound:

IC50 (NLRP3 [1]) [nM] | IC50 (NLRP3 [2]) [nM] | Compound
640 to 2560 |  | O=C(Nc1c2c(cc3c1CCC3)CCC2)NS(=O)(=O)c1ccn(-c2nccs2)n1 [Example 5, N-((1,2,3,5,6,7-Hexahydro-s-indacen-4-yl)carbamoyl)-1-(thiazol-2-yl)-1H-pyrazole-3-sulfonamide]
160 to 640 | 1600 to 3200 | CN(Cc1nccs1)C(=O)c1cc(S(=O)(=O)NC(=O)Nc2c3c(cc4c2CCC4)CCC3)nn1C [Example 7, 3-(N-((1,2,3,5,6,7-Hexahydro-s-indacen-4-yl)carbamoyl)sulfamoyl)-N,1-dimethyl-N-(thiazol-2-ylmethyl)-1H-pyrazole-5-carboxamide]
40 to 160 | 800 to 1600 | CN(Cc1nccn1C)C(=O)c1cc(S(=O)(=O)NC(=O)Nc2c3c(cc4c2CCC4)CCC3)nn1C [Example 8, 3-(N-((1,2,3,5,6,7-Hexahydro-s-indacen-4-yl)carbamoyl)sulfamoyl)-N,1-dimethyl-N-((1-methyl-1H-imidazol-2-yl)methyl)-1H-pyrazole-5-carboxamide]
160 to 640 |  | CN(C(=O)c1cc(S(=O)(=O)NC(=O)Nc2c3c(cc4c2CCC4)CCC3)nn1C)c1nccs1 [Example 9, 3-(N-((1,2,3,5,6,7-Hexahydro-s-indacen-4-yl)carbamoyl)sulfamoyl)-N,1-dimethyl-N-(thiazol-2-yl)-1H-pyrazole-5-carboxamide]
640 to 2560 |  | CN(Cc1ccnn1C)C(=O)c1cc(S(=O)(=O)NC(=O)Nc2c3c(cc4c2CCC4)CCC3)nn1C [Example 10, 3-(N-((1,2,3,5,6,7-Hexahydro-s-indacen-4-yl)carbamoyl)sulfamoyl)-N,1-dimethyl-N-((1-methyl-1H-pyrazol-5-yl)methyl)-1H-pyrazole-5-carboxamide]
